# Measured values published in the NIST ThermoML archive (doi:10.1021/acs.jced.6b00388).
# ± gives the expanded uncertainty stated by the source.
# Conditions: Liquid, Ebulliometric method (Recirculating still)
compound,measurement,setting,value
CC=C(C)C#N [2-methyl-2-butenenitrile],vapor or sublimation pressure,367.43 K,50 ± 1 kPa
same,vapor or sublimation pressure,392.75 K,100 ± 2 kPa
CC=CCC#N [3-pentenenitrile],vapor or sublimation pressure,393.48 K,50 ± 1 kPa
same,vapor or sublimation pressure,418.25 K,100 ± 2 kPa
C=CC1CC=CCC1 (stereo unspecified) [4-ethenylcyclohexene],vapor or sublimation pressure,377.75 K,50 ± 1 kPa
same,vapor or sublimation pressure,401.42 K,100 ± 2 kPa
